We go through 4 molecules from PMC11302837, “Efficacy of BRAF/MEK-inhibitor therapy for epithelioid glioblastoma with a novel BRAFV600 mutation” (Acta Neuropathologica Communications, 2024).

Structures are written as SMILES.

Data set [1] is described as follows: Concentration of BRAF/MEK inhibitors in patient serum/plasma by LC-MS/MS. Conditions: encorafenib/binimetinib given day 1-3 then discontinued, dabrafenib/trametinib from day 4. It counts as in vivo, human. How it is done: (§1) Determination of BRAF/MEK inhibitors concentration in plasma and CSF of patients by liquid chromatography–tandem mass spectrometry
Sample preparation of plasma and CSF samples was different. Twenty microliters of plasma were diluted with 180 µL of water and mixed with 200 µL formic acid (1%). An automated solid phase extraction with an ASPEC XL (Gilson, Middleton, USA) and Oasis HLB (Waters, Milford, USA) cartridges were used. The cartridges were conditioned, loaded, washed and finally eluted with 1 mL methanol. The SPE extracts were evaporated to dryness and reconstituted with 200 µL. For quantification, 10-point external calibration curves in blank plasma at the range from 1.95 to 1000 µg/L for all four substances were freshly prepared and measured in parallel.
(§2) Native CSF samples were used with a standard addition method for quantification. A volume of 20 µl was always injected into the Ultimate 3000 HPLC system from Thermo Scientific system coupled to an API4000 tandem mass spectrometer (ABSciex, Darmstadt, Germany). The BRAF and MEK inhibitors encorafenib, binimetinib, dabrafenib and trametinib were separated by reversed phase chromatography with a Synergi 4 μm Hydro-RP 80 A, 150 × 3 mm column (Phenomenex, Torrance, USA).
(§3) The temperature of column was constantly at 40 °C. Determination of the analytes was performed using the multiple reaction monitoring mode with nitrogen as collision gas. For positive ionization, a capillary voltage of 4000 V (positive ion mode) was used. Quantification was performed by the peak area method, and a weighted (1/x) regression of first order yielded the concentrations.
(§4) Moreover, comprehensive analyses of the patients’ CSF and plasma using liquid chromatography-tandem mass spectrometry were performed to determine the concentrations of various MAPKi two, four, and five days after regimen modification, i.e. five, seven, and eight days following initiation of the targeted therapy. There was a clear accumulation of all MAPKi in the patient’s plasma (Table 2). The concentrations determined reside within the therapeutic range of the maximum and minimum plasma concentrations published (Table 2).

The nature of data set [2]: Concentration of BRAF/MEK inhibitors in patient CSF by LC-MS/MS. It counts as in vivo, human. Conditions: for CSF concentration: CSF via EVD; for Kp: human, CSF/serum, oral. The protocol: as §1, §2, §3, §4
The nature of data set [3]: Tolerability of oral regimen in the patient. The class given is in vivo, human. The settings on record: oral hard capsules and tablets; quantity and size. How it is done:
Based on the promising results of the mutational and IHC analyses, a targeted therapy with the BRAF inhibitor, encorafenib and the MEK inhibitor, binimetinib was initiated. The dosage mirrored that of MM with 450 mg of encorafenib (i.e. 6 × 75 mg) administrated daily, and 45 mg of binimetinib (i.e. 3 × 15 mg), administrated twice daily. […] Consequently, after three days, the regimen was modified.

Details of data set [4]: method as in earlier work. The settings on record: serum of patients; ref EMA product information sheet, Delord et al., 2017 [29], Sullivan et al., 2020 [30]; cited from earlier work.
The mark [5] stands for this setting: day 5 after treatment initiation.
The mark [6] stands for this setting: day 7 after treatment initiation.
Setting [7] is: day 8 after treatment initiation.

As to `CC(C)(C)c1nc(-c2cccc(NS(=O)(=O)c3c(F)cccc3F)c2F)c(-c2ccnc(N)n2)s1` [Dabrafenib, dabrafenib], the Serum concentration in data set [1] (setting [5]) stood at 322.9 ng/mL; in data set [1] (setting [6]), 188.0 ng/mL; in data set [1] (setting [7]), 94.6 ng/mL. The CSF concentration in data set [2] (setting [5]) stood at 5.4 ng/mL; in data set [2] (setting [6]), 6.1 ng/mL; in data set [2] (setting [7]), 1.5 ng/mL. For the same molecule, the results for the Kp in data set [2] (setting [5]), in data set [2] (setting [6]) and in data set [2] (setting [7]) were 0.017, 0.032 and 0.016, respectively. In addition, in data set [3], the “Tolerability by the patient” value is recorded as “better tolerated”. The “C max (maximum plasma concentration)” value in data set [4] is 1478 ng/mL. Besides, the “C min (minimum plasma concentration)” value in data set [4] is 26 ng/mL.

On to `COC(=O)N[C@@H](C)CNc1nccc(-c2cn(C(C)C)nc2-c2cc(Cl)cc(NS(C)(=O)=O)c2F)n1` [Encorafenib, encorafenib], for which the Serum concentration is 13.5 ng/mL in data set [1] (setting [5]), 5.7 ng/mL in data set [1] (setting [6]) and 6.1 ng/mL in data set [1] (setting [7]). In addition, the CSF concentration was 2.4 ng/mL in data set [2] (setting [5]), 1.1 ng/mL in data set [2] (setting [6]) and 1.1 ng/mL in data set [2] (setting [7]). In addition, the concentration ratio (Kp) in data set [2] (setting [5]) worked out at 0.178; in data set [2] (setting [6]), 0.193; in data set [2] (setting [7]) it was 0.18. For the same molecule, the “Tolerability by the patient” value in data set [3] is on record as “poorly tolerated”. Besides, the “C max (maximum plasma concentration)” value in data set [4] was 3800 ng/mL. The “C min (minimum plasma concentration)” value in data set [4] is 13.9 ng/mL.

With `CC(=O)Nc1cccc(-n2c(=O)n(C3CC3)c(=O)c3c(Nc4ccc(I)cc4F)n(C)c(=O)c(C)c32)c1` [Trametinib, trametinib], the Serum concentration worked out at 8.8 ng/mL in data set [1] (setting [5]), 7.7 ng/mL in data set [1] (setting [6]) and 9.2 ng/mL in data set [1] (setting [7]). Besides, the CSF concentration in data set [2] (setting [5]) was 0.0 ng/mL; in data set [2] (setting [6]), 0.3 ng/mL; in data set [2] (setting [7]), 0.4 ng/mL. Besides, the figures for the Kp in data set [2] (setting [5]), in data set [2] (setting [6]) and in data set [2] (setting [7]) were 0, 0.039 and 0.043, respectively. Moreover, in data set [3], the “Tolerability by the patient” value is on record as “better tolerated”. Besides, the “C max (maximum plasma concentration)” value in data set [4] was 22.2 ng/mL. For the same molecule, the “C min (minimum plasma concentration)” value in data set [4] is 12.1 ng/mL.

Turning to `Cn1cnc2c(F)c(Nc3ccc(Br)cc3F)c(C(=O)NOCCO)cc21` [Binimetinib, binimetinib], the Serum concentration in data set [1] (setting [5]) is 96.5 ng/mL; in data set [1] (setting [6]), 19.1 ng/mL; in data set [1] (setting [7]), 13.8 ng/mL. For the same molecule, the CSF concentration in data set [2] (setting [5]) came to 10.3 ng/mL; in data set [2] (setting [6]), 5.3 ng/mL; in data set [2] (setting [7]), 5.0 ng/mL. Besides, the values for the Kp in data set [2] (setting [5]), in data set [2] (setting [6]) and in data set [2] (setting [7]) were 0.107, 0.277 and 0.362, respectively. Moreover, the “Tolerability by the patient” value in data set [3] is given as “poorly tolerated”. For the same molecule, the “C max (maximum plasma concentration)” value in data set [4] was 654 ng/mL. Moreover, the “C min (minimum plasma concentration)” value in data set [4] is 51.4 ng/mL.

The Kp is the ratio of the level in a tissue or fluid to that in plasma or blood.
